Experimental data taken from publication PMC12300835, “Geographic Influence and Metabolomics-Driven Discovery of 5-Alpha Reductase Inhibitors in Tectona grandis L.f. (Teak) Leaves” (Molecules, 2025).

Assays:
[1] = target: T1, S5AR enzyme derived from LNCaP cells (Homo sapiens, UniProt P18405); assay: S5AR inhibition assay (DHT production quantified by LC-MS); assay type: biochemical; details: read-out: S5AR percentage inhibition
T1 sequence (P18405 1-259): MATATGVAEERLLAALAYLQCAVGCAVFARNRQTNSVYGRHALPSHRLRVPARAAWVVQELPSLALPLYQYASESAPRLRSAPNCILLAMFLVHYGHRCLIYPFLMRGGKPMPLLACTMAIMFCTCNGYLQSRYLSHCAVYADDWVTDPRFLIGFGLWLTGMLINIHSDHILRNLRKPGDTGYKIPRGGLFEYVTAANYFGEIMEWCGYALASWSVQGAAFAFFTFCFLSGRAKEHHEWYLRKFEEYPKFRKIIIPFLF

[2] = target: T1, S5AR enzyme derived from LNCaP cells; details: taken from previous publication; read-out: S5AR Inhibitory Activity (IC50); cited from earlier work

Which inhibition at 300 µM ([1]; final concentration of 300 µM) does the source give for `CC1=C(CC[C@@H](C)CC(=O)O)[C@@]2(C)CCCC(C)(C)C2CC1=O` (stereo partly drawn) [Compound 2, 7-Oxo-8-labden-15-oic acid] here?
The inhibition at 300 µM was 41.4%.

Which inhibition at 50 µg/mL [1] does the source give for `COc1cc(/C=C/C(=O)CC(=O)/C=C/c2ccc(O)c(OC)c2)ccc1O` [Curcumin] here?
The inhibition at 50 µg/mL was 92.73 ± 0.14%.

Which IC50 [2] does the source give for `CC(C)(C)NC(=O)[C@H]1CC[C@H]2[C@@H]3CC[C@H]4NC(=O)C=C[C@]4(C)[C@H]3CC[C@]12C` [Finasteride] here?
The IC50 was 760 ± 30 nM.
